Assay results: ChEMBL document CHEMBL3797052 (Eur J Med Chem, 2016)

test system: CCRF-CEM; assay: Antiproliferative activity against human CCRF-CEM cells assessed as cell growth at 10^-4 M after 48 hrs by sulforhodamine B assay; assay type: functional; conditions: read-out: Activity

| SMILES | growth at 100 µM |
| --- | --- |
| CNC(=O)c1cc(Oc2ccc3nc(NC(=O)Nc4cc(C(F)(F)F)cc(C(F)(F)F)c4)sc3c2)ccn1 | -36% |

test system: not listed separately; assay: Antiproliferative activity against human UACC257 cells assessed as cell growth at 10^-6 M after 48 hrs by sulforhodamine B assay; assay type: functional; conditions: UACC-257, 48 h, read-out: Activity

| SMILES | growth at 1 µM |
| --- | --- |
| CNC(=O)c1cc(Oc2ccc3nc(NC(=O)Nc4cc(C(F)(F)F)cc(C(F)(F)F)c4)sc3c2)ccn1 | 59% |

test system: MCF7; assay: Antiproliferative activity against human MCF7 cells assessed as cell growth at 10^-7 M after 48 hrs by sulforhodamine B assay; assay type: functional; conditions: MCF7, 48 h, read-out: Activity

| SMILES | growth at 0.1 µM |
| --- | --- |
| CNC(=O)c1cc(Oc2ccc3nc(NC(=O)Nc4cc(C(F)(F)F)cc(C(F)(F)F)c4)sc3c2)ccn1 | 87% |

target: CYP2C19 (Homo sapiens, UniProt P33261); assay: Inhibition of recombinant human CYP2C19 assessed as remaining enzyme activity at 10 uM after 5 mins in presence of NADP by fluorescence plate reader analysis; assay type: ADME; conditions: read-out: Activity
Sequence (P33261 whole entry): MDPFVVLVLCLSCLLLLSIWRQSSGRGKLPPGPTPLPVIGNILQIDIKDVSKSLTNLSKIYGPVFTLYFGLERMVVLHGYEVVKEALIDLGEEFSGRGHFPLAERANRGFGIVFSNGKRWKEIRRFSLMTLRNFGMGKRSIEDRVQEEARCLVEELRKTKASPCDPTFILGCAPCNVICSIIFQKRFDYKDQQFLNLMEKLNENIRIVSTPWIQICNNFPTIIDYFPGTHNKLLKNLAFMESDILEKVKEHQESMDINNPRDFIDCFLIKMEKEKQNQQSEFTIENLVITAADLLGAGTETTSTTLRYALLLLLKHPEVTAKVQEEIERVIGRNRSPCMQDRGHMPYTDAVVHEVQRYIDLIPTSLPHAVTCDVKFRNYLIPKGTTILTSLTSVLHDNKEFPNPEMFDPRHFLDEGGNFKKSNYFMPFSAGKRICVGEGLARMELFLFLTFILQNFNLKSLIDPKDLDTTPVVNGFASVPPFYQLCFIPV

| SMILES | activity at 5 min, 10 µM |
| --- | --- |
| CNC(=O)c1cc(Oc2ccc3nc(NC(=O)Nc4cc(C(F)(F)F)cc(C(F)(F)F)c4)sc3c2)ccn1 | 70.1% |

target: CYP3A4 (Homo sapiens, UniProt P08684); assay: Inhibition of recombinant human CYP3A4 assessed as remaining enzyme activity using CYP3A4 blue as substrate at 10 uM after 5 mins in presence of NADP by fluorescence plate reader analysis; assay type: ADME; conditions: recombinant human CYP3A4, probe CYP3A4 blue, read-out: Activity
Sequence (P08684 whole entry): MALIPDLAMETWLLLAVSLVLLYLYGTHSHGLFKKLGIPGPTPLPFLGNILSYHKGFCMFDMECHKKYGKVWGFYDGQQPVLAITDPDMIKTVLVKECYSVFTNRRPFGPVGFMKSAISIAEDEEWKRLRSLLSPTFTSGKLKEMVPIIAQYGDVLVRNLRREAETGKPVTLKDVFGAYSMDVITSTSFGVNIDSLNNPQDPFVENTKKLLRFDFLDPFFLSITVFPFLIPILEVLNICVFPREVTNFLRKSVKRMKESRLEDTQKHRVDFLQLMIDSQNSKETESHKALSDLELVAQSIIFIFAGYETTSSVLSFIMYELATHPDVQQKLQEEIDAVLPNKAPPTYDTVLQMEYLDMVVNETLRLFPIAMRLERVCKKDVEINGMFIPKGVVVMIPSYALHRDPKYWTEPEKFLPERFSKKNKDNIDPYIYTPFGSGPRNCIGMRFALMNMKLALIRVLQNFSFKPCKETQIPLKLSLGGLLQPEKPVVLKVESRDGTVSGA

| SMILES | activity at 5 min, 10 µM |
| --- | --- |
| CNC(=O)c1cc(Oc2ccc3nc(NC(=O)Nc4cc(C(F)(F)F)cc(C(F)(F)F)c4)sc3c2)ccn1 | 50.6% |

test system: not listed separately; assay: Antiproliferative activity against human SNB75 cells assessed as cell growth at 10^-8 M after 48 hrs by sulforhodamine B assay; assay type: functional; conditions: SNB-75, 48 h, read-out: Activity

| SMILES | growth at 0.01 µM |
| --- | --- |
| CNC(=O)c1cc(Oc2ccc3nc(NC(=O)Nc4cc(C(F)(F)F)cc(C(F)(F)F)c4)sc3c2)ccn1 | 77% |

test system: not listed separately; assay: Antiproliferative activity against human NCI-ADR-RES cells assessed as cell growth at 10^-7 M after 48 hrs by sulforhodamine B assay; assay type: functional; conditions: read-out: Activity

| SMILES | growth at 0.1 µM |
| --- | --- |
| CNC(=O)c1cc(Oc2ccc3nc(NC(=O)Nc4cc(C(F)(F)F)cc(C(F)(F)F)c4)sc3c2)ccn1 | 98% |

test system: 786-0; assay: Antiproliferative activity against human 786-0 cells assessed as cell growth at 10^-6 M after 48 hrs by sulforhodamine B assay; assay type: functional; conditions: 786-0, 48 h, read-out: Activity

| SMILES | growth at 1 µM |
| --- | --- |
| CNC(=O)c1cc(Oc2ccc3nc(NC(=O)Nc4cc(C(F)(F)F)cc(C(F)(F)F)c4)sc3c2)ccn1 | 75% |

test system: not listed separately; assay: Antiproliferative activity against human UO31 cells assessed as cell growth at 10^-8 M after 48 hrs by sulforhodamine B assay; assay type: functional; conditions: UO-31, 48 h, read-out: Activity

| SMILES | growth at 0.01 µM |
| --- | --- |
| CNC(=O)c1cc(Oc2ccc3nc(NC(=O)Nc4cc(C(F)(F)F)cc(C(F)(F)F)c4)sc3c2)ccn1 | 95% |

test system: not listed separately; assay: Antiproliferative activity against human OVCAR5 cells assessed as cell growth at 10^-4 M after 48 hrs by sulforhodamine B assay; assay type: functional; conditions: OVCAR-5, 48 h, read-out: Activity

| SMILES | growth at 100 µM |
| --- | --- |
| CNC(=O)c1cc(Oc2ccc3nc(NC(=O)Nc4cc(C(F)(F)F)cc(C(F)(F)F)c4)sc3c2)ccn1 | -74% |

test system: MDA-MB-435; assay: Antiproliferative activity against human MDA-MB-435 cells assessed as cell growth at 10^-7 M after 48 hrs by sulforhodamine B assay; assay type: functional; conditions: MDA-MB-435, 48 h, read-out: Activity

| SMILES | growth at 0.1 µM |
| --- | --- |
| CNC(=O)c1cc(Oc2ccc3nc(NC(=O)Nc4cc(C(F)(F)F)cc(C(F)(F)F)c4)sc3c2)ccn1 | 95% |

test system: not listed separately; assay: Antiproliferative activity against human COLO205 cells assessed as cell growth at 10^-6 M after 48 hrs by sulforhodamine B assay; assay type: functional; conditions: COLO 205, 48 h, read-out: Activity

| SMILES | growth at 1 µM |
| --- | --- |
| CNC(=O)c1cc(Oc2ccc3nc(NC(=O)Nc4cc(C(F)(F)F)cc(C(F)(F)F)c4)sc3c2)ccn1 | 46% |

test system: not listed separately; assay: Antiproliferative activity against human DU145 cells assessed as cell growth at 10^-8 M after 48 hrs by sulforhodamine B assay; assay type: functional; conditions: DU-145, 48 h, read-out: Activity

| SMILES | growth at 0.01 µM |
| --- | --- |
| CNC(=O)c1cc(Oc2ccc3nc(NC(=O)Nc4cc(C(F)(F)F)cc(C(F)(F)F)c4)sc3c2)ccn1 | 101% |

test system: not listed separately; assay: Antiproliferative activity against human NCI-ADR-RES cells assessed as cell growth at 10^-6 M after 48 hrs by sulforhodamine B assay; assay type: functional; conditions: read-out: Activity

| SMILES | growth at 1 µM |
| --- | --- |
| CNC(=O)c1cc(Oc2ccc3nc(NC(=O)Nc4cc(C(F)(F)F)cc(C(F)(F)F)c4)sc3c2)ccn1 | 63% |

test system: not listed separately; assay: Antiproliferative activity against human SNB75 cells assessed as growth inhibition after 48 hrs by sulforhodamine B assay; assay type: functional; conditions: SNB-75, 48 h

| SMILES | GI50 | TGI |
| --- | --- | --- |
| CNC(=O)c1cc(Oc2ccc3nc(NC(=O)Nc4cc(C(F)(F)F)cc(C(F)(F)F)c4)sc3c2)ccn1 | 1000 nM | 2700 nM |

same assay, conditions: SNB-75, 48 h, read-out: LC50 (the source's name)

| SMILES | CC50 |
| --- | --- |
| CNC(=O)c1cc(Oc2ccc3nc(NC(=O)Nc4cc(C(F)(F)F)cc(C(F)(F)F)c4)sc3c2)ccn1 | 7260 nM |

test system: not listed separately; assay: Antiproliferative activity against human UACC257 cells assessed as cell growth at 10^-4 M after 48 hrs by sulforhodamine B assay; assay type: functional; conditions: UACC-257, 48 h, read-out: Activity

| SMILES | growth at 100 µM |
| --- | --- |
| CNC(=O)c1cc(Oc2ccc3nc(NC(=O)Nc4cc(C(F)(F)F)cc(C(F)(F)F)c4)sc3c2)ccn1 | -94% |

test system: MDA-MB-435; assay: Antiproliferative activity against human MDA-MB-435 cells assessed as cell growth at 10^-6 M after 48 hrs by sulforhodamine B assay; assay type: functional; conditions: MDA-MB-435, 48 h, read-out: Activity

| SMILES | growth at 1 µM |
| --- | --- |
| CNC(=O)c1cc(Oc2ccc3nc(NC(=O)Nc4cc(C(F)(F)F)cc(C(F)(F)F)c4)sc3c2)ccn1 | 52% |

test system: not listed separately; assay: Antiproliferative activity against human LOXIMVI cells assessed as cell growth at 10^-6 M after 48 hrs by sulforhodamine B assay; assay type: functional; conditions: LOX IMVI, read-out: Activity

| SMILES | growth at 1 µM |
| --- | --- |
| CNC(=O)c1cc(Oc2ccc3nc(NC(=O)Nc4cc(C(F)(F)F)cc(C(F)(F)F)c4)sc3c2)ccn1 | 63% |

target: RAF proto-oncogene serine/threonine-protein kinase (Homo sapiens, UniProt P04049); assay: Inhibition of human C-RAF measured after 40 mins by scintillation counting; conditions: not given
Sequence (P04049 whole entry): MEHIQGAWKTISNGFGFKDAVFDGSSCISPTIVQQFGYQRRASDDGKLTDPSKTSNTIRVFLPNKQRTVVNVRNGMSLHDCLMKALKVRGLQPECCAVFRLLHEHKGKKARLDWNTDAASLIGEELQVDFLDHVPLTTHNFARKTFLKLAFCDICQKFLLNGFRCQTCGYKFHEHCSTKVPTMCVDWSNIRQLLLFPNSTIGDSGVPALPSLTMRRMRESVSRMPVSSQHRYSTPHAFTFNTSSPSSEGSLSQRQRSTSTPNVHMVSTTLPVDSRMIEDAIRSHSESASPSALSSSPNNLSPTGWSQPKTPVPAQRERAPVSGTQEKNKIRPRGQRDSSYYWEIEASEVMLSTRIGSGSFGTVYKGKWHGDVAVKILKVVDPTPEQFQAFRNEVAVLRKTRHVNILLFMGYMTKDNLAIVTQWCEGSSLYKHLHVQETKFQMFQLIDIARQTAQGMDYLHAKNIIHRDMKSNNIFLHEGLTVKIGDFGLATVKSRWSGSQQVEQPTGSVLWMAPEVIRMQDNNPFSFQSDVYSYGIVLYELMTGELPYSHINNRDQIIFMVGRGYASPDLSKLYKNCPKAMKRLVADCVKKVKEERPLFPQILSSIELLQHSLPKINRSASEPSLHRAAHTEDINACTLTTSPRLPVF

| SMILES | IC50 |
| --- | --- |
| CNC(=O)c1cc(Oc2ccc3nc(NC(=O)Nc4cc(C(F)(F)F)cc(C(F)(F)F)c4)sc3c2)ccn1 | 566 nM |

test system: SR; assay: Antiproliferative activity against human SR cells assessed as growth inhibition after 48 hrs by sulforhodamine B assay; assay type: functional; conditions: not given

| SMILES | GI50 | LC50 | TGI |
| --- | --- | --- | --- |
| CNC(=O)c1cc(Oc2ccc3nc(NC(=O)Nc4cc(C(F)(F)F)cc(C(F)(F)F)c4)sc3c2)ccn1 | 514 nM | 31600 nM | 2600 nM |
